From ChEMBL document CHEMBL1201862, “PubChem BioAssay data set” (2004)
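Five compound concentrations were applied to cells in 96-well plates for 48 hours; endpoints were derived by simple linear interpolation of the resulting dose-response curve. Here, GI50 denotes the concentration required for 50% inhibition of growth.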 Calls of active or inactive are those of the source. No stated cut-off is given here; in the data, active = GI50 up to about 1.1 µM and inactive = higher.

Legend:
Experiment in all cases: NCI tumour cell line growth inhibition, 48 h
[1] = system: 786-0
[2] = system: A549
[3] = system: ACHN
[4] = system: BT-549
[5] = system: CCRF-CEM
[6] = system: COLO 205
[7] = system: DU-145
[8] = system: EKVX
[9] = system: HCC 2998
[10] = system: HCT-116
[11] = system: HCT-15
[12] = system: HL-60
[13] = system: HOP-62
[14] = system: HOP-92
[15] = system: HT-29
[16] = system: Hs-578T
[17] = system: IGROV-1
[18] = system: K562
[19] = system: KM12
[20] = system: LOX IMVI
[21] = system: MDA-MB-231
[22] = system: MDA-MB-435
[23] = system: MDA-N
[24] = system: MOLT-4
[25] = system: Malme-3M
[26] = system: NCI-H226
[27] = system: NCI-H23
[28] = system: NCI-H460
[29] = system: NCI-H522
[30] = system: NCI/ADR-RES
[31] = system: OVCAR-3
[32] = system: OVCAR-4
[33] = system: OVCAR-5
[34] = system: OVCAR-8
[35] = system: PC-3
[36] = system: RPMI-8226
[37] = system: RXF 393
[38] = system: SF-268
[39] = system: SF-295
[40] = system: SK-MEL-28
[41] = system: SK-MEL-2
[42] = system: SK-OV-3
[43] = system: SN12C
[44] = system: SNB-19
[45] = system: SNB-75
[46] = system: SR
[47] = system: SW-620
[48] = system: TK-10
[49] = system: U-251
[50] = system: UACC-62
[51] = system: UO-31
[52] = system: A498
[53] = system: CAKI-1
[54] = system: MCF7
[55] = system: SK-MEL-5
[56] = system: UACC-257
[57] = system: SF-539

## COc1ccc(N2C(=O)c3cc([N+](=O)[O-])cnc3S2(=O)=O)cc1
[1]
  GI50: > 100 µM (inactive)
[2]
  GI50: > 100 µM (inactive)
[3]
  GI50: > 100 µM (inactive)
[4]
  GI50: > 100 µM (inactive)
[5]
  GI50: > 100 µM (inactive)
[6]
  GI50: > 100 µM (inactive)
[7]
  GI50: > 100 µM (inactive)
[8]
  GI50: > 100 µM (inactive)
[9]
  GI50: > 100 µM (inactive)
[10]
  GI50: > 100 µM (inactive)
[11]
  GI50: > 100 µM
[12]
  GI50: > 100 µM (inactive)
[13]
  GI50: > 100 µM (inactive)
[14]
  GI50: > 100 µM (inactive)
[15]
  GI50: > 100 µM (inactive)
[16]
  GI50: > 100 µM (inactive)
[17]
  GI50: > 100 µM (inactive)
[18]
  GI50: > 100 µM (inactive)
[19]
  GI50: > 100 µM (inactive)
[20]
  GI50: > 100 µM (inactive)
[21]
  GI50: > 100 µM (inactive)
[22]
  GI50: > 100 µM (inactive)
[23]
  GI50: > 100 µM (inactive)
[24]
  GI50: > 100 µM (inactive)
[25]
  GI50: > 100 µM (inactive)
[26]
  GI50: > 100 µM (inactive)
[27]
  GI50: > 100 µM (inactive)
[28]
  GI50: > 100 µM (inactive)
[29]
  GI50: > 100 µM (inactive)
[30]
  GI50: > 100 µM (inactive)
[31]
  GI50: > 100 µM (inactive)
[32]
  GI50: > 100 µM (inactive)
[33]
  GI50: > 100 µM (inactive)
[34]
  GI50: > 100 µM (inactive)
[35]
  GI50: > 100 µM (inactive)
[36]
  GI50: > 100 µM (inactive)
[37]
  GI50: > 100 µM (inactive)
[38]
  GI50: > 100 µM (inactive)
[39]
  GI50: > 100 µM (inactive)
[40]
  GI50: > 100 µM (inactive)
[41]
  GI50: > 100 µM (inactive)
[42]
  GI50: > 100 µM (inactive)
[43]
  GI50: > 100 µM (inactive)
[44]
  GI50: > 100 µM (inactive)
[45]
  GI50: > 100 µM (inactive)
[46]
  GI50: > 100 µM (inactive)
[47]
  GI50: > 100 µM (inactive)
[48]
  GI50: > 100 µM (inactive)
[49]
  GI50: > 100 µM (inactive)
[50]
  GI50: > 100 µM (inactive)
[51]
  GI50: > 100 µM (inactive)

## O=C1NC(=S)N/C1=C\c1ccc(Br)s1
[1]
  GI50: > 100 µM (inactive)
[52]
  GI50: 34.3 µM (inactive)
[3]
  GI50: > 100 µM (inactive)
[4]
  GI50: 40.4 µM (inactive)
[53]
  GI50: 70.6 µM (inactive)
[5]
  GI50: 25.3 µM (inactive)
[6]
  GI50: > 100 µM (inactive)
[7]
  GI50: > 100 µM (inactive)
[8]
  GI50: 10.3 µM (inactive)
[9]
  GI50: 57.8 µM (inactive)
[10]
  GI50: > 100 µM (inactive)
[11]
  GI50: 91.2 µM
[12]
  GI50: 0.861 µM (active)
[13]
  GI50: > 100 µM (inactive)
[14]
  GI50: 82 µM (inactive)
[15]
  GI50: 85.1 µM (inactive)
[16]
  GI50: 34 µM (inactive)
[17]
  GI50: 93.5 µM (inactive)
[18]
  GI50: 34.8 µM (inactive)
[19]
  GI50: > 100 µM (inactive)
[20]
  GI50: > 100 µM (inactive)
[54]
  GI50: > 100 µM (inactive)
[21]
  GI50: > 100 µM (inactive)
[22]
  GI50: 58.6 µM (inactive)
[23]
  GI50: > 100 µM (inactive)
[24]
  GI50: 21.4 µM (inactive)
[25]
  GI50: > 100 µM (inactive)
[26]
  GI50: 84.9 µM (inactive)
[27]
  GI50: > 100 µM (inactive)
[28]
  GI50: 70.5 µM (inactive)
[29]
  GI50: 82.8 µM (inactive)
[31]
  GI50: 71.8 µM (inactive)
[32]
  GI50: 53.1 µM (inactive)
[33]
  GI50: > 100 µM (inactive)
[35]
  GI50: 94.2 µM (inactive)
[36]
  GI50: 27.7 µM (inactive)
[37]
  GI50: > 100 µM (inactive)
[38]
  GI50: > 100 µM (inactive)
[39]
  GI50: > 100 µM (inactive)
[40]
  GI50: > 100 µM (inactive)
[41]
  GI50: 99.8 µM (inactive)
[55]
  GI50: 39.8 µM (inactive)
[42]
  GI50: > 100 µM (inactive)
[43]
  GI50: > 100 µM (inactive)
[44]
  GI50: 90.2 µM (inactive)
[46]
  GI50: 33.4 µM (inactive)
[47]
  GI50: > 100 µM (inactive)
[48]
  GI50: 52 µM (inactive)
[49]
  GI50: > 100 µM (inactive)
[56]
  GI50: 61 µM (inactive)
[50]
  GI50: 28 µM (inactive)
[51]
  GI50: 55.2 µM (inactive)

## CN1C(=O)[C@@H]2[C@@H]3c4ccccc4N[C@@H]3c3[nH]c4ccccc4c3[C@@H]2C1=O
[52]
  GI50: 25.4 µM (inactive)
[2]
  GI50: 22.8 µM (inactive)
[3]
  GI50: 18.5 µM (inactive)
[4]
  GI50: 18.7 µM (inactive)
[53]
  GI50: 33.2 µM (inactive)
[5]
  GI50: 17.3 µM (inactive)
[6]
  GI50: 17 µM (inactive)
[7]
  GI50: 41.7 µM (inactive)
[8]
  GI50: 27.1 µM (inactive)
[9]
  GI50: 18.2 µM (inactive)
[10]
  GI50: 29.4 µM (inactive)
[11]
  GI50: 18.8 µM
[13]
  GI50: 19.5 µM (inactive)
[14]
  GI50: 20 µM (inactive)
[15]
  GI50: 36.1 µM (inactive)
[16]
  GI50: 28.3 µM (inactive)
[17]
  GI50: 0.0502 µM (active)
[18]
  GI50: 22.3 µM (inactive)
[20]
  GI50: 20.6 µM (inactive)
[54]
  GI50: 22.4 µM (inactive)
[21]
  GI50: 21 µM (inactive)
[22]
  GI50: 23.3 µM (inactive)
[23]
  GI50: 31.8 µM (inactive)
[24]
  GI50: 19.1 µM (inactive)
[26]
  GI50: 60.8 µM (inactive)
[27]
  GI50: 13.9 µM (inactive)
[28]
  GI50: 15.3 µM (inactive)
[30]
  GI50: 22.8 µM (inactive)
[31]
  GI50: 16.6 µM (inactive)
[32]
  GI50: 16.9 µM (inactive)
[33]
  GI50: 20.1 µM (inactive)
[34]
  GI50: 21.6 µM (inactive)
[35]
  GI50: 17.4 µM (inactive)
[36]
  GI50: 18.7 µM (inactive)
[37]
  GI50: 25 µM (inactive)
[38]
  GI50: 32.6 µM (inactive)
[39]
  GI50: 18.6 µM (inactive)
[57]
  GI50: 19 µM (inactive)
[40]
  GI50: 24.5 µM (inactive)
[41]
  GI50: 17.3 µM (inactive)
[55]
  GI50: 12.5 µM (inactive)
[42]
  GI50: 26.1 µM (inactive)
[43]
  GI50: 29.5 µM (inactive)
[44]
  GI50: 29.6 µM (inactive)
[45]
  GI50: 31.6 µM (inactive)
[46]
  GI50: 15.8 µM (inactive)
[47]
  GI50: 29.2 µM (inactive)
[48]
  GI50: 23.8 µM (inactive)
[49]
  GI50: 23.8 µM (inactive)
[56]
  GI50: 17.9 µM (inactive)
[50]
  GI50: 14.5 µM (inactive)
[51]
  GI50: 14.7 µM (inactive)
